Measured values as given in ChEMBL document CHEMBL6109081, “Discovery and optimization of phenazopyridine hydrochloride as novel SARS-CoV-2 RdRp inhibitors” (Eur J Med Chem, 2025).
The source made the active and inactive calls. The rule behind the calls is not given here.

Assays:
[1] = target: Replicase polyprotein 1ab (Severe acute respiratory syndrome coronavirus 2) (UniProt P0DTD1); test: Inhibition of SARS-CoV-2 RdRp in HEK-293T cells at 10 uM measured after 24 hrs relative to control; format: cell-based
[2] = Cytotoxicity against HEK293T cells assessed as inhibition of cell growth measured after 48 hrs by CCK8 assay; format: toxicity, cell-based, HEK-293T; conditions: human
[3] = Antiviral activity against SARS-CoV-2 infected in HEK293T cells assessed as inhibition of SARS-CoV-2 RdRp in the presence of coelenterazine-h incubated for 24 hrs by Gaussia luciferase reporter assay; format: functional, cell-based; conditions: Homo sapiens, HEK-293T
[4] = target: Replicase polyprotein 1ab (Severe acute respiratory syndrome coronavirus 2) (UniProt P0DTD1); test: Inhibition of SARS-CoV-2 RdRp mediated RNA synthesis in HEK-293T cells cotransfected with pCoV-GLuc and pCMV6-nsp12/nsp7/nsp8 assessed as reduction in minus strand RNA level at 10 uM by measuring GLuc RNA level for 24 hrs in the presence of coelenterazine-h by Gaussia luciferase reporter assay relative to control; format: cell-based
[5] = target: Replicase polyprotein 1ab (Severe acute respiratory syndrome coronavirus 2) (UniProt P0DTD1); test: Inhibition of SARS-CoV-2 RdRp mediated RNA synthesis in HEK-293T cells cotransfected with pCoV-GLuc and pCMV6-nsp12/nsp7/nsp8 assessed as reduction in plus strand RNA level by measuring GLuc RNA level for 24 hrs in the presence of coelenterazine-h by Gaussia luciferase reporter assay; format: cell-based; conditions: dose 2-10 µM
[6] = Cytotoxicity against Rhesus monkey LLC-MK2 cells incubated for 48 hrs by method; format: toxicity, cell-based, Macaca mulatta
[7] = Cytotoxicity against human HCT-8 cells incubated for 48 hrs by CCK8 method; format: toxicity, cell-based
[8] = target: Replicase polyprotein 1ab (Severe acute respiratory syndrome coronavirus 2) (UniProt P0DTD1); test: Inhibition of SARS-CoV-2 RdRp mediated RNA synthesis in HEK-293T cells cotransfected with pCoV-GLuc and pCMV6-nsp12/nsp7/nsp8 assessed as reduction in plus strand RNA level at 10 uM by measuring GLuc RNA level for 24 hrs in the presence of coelenterazine-h by Gaussia luciferase reporter assay relative to control; format: cell-based
[9] = system: Human coronavirus OC43; test: Antiviral activity against HCoV-OC43 infected in human HCT-8 cells at a MOI of 0.1 assessed as inhibition of viral replication measured after 5 days by MTS assay; format: functional, organism-based; conditions: Betacoronavirus 1, HCT-8, 120 h
[10] = target: Replicase polyprotein 1ab (Severe acute respiratory syndrome coronavirus 2) (UniProt P0DTD1); test: Inhibition of SARS-CoV-2 RdRp mediated RNA synthesis in HEK-293T cells cotransfected with pCoV-GLuc and pCMV6-nsp12/nsp7/nsp8 assessed as reduction in minus strand RNA level by measuring GLuc RNA level for 24 hrs in the presence of coelenterazine-h by Gaussia luciferase reporter assay; format: cell-based; conditions: dose 2-10 µM
[11] = system: Human coronavirus NL63; test: Antiviral activity against HCoV-NL63 infected in Rhesus monkey LLC-MK2 cells at a MOI of 0.01 assessed as inhibition of viral replication measured after 120 hrs by MTS assay; format: functional, organism-based; conditions: Human coronavirus NL63, LLC-MK2, 120 h
[12] = target: T1, Replicase polyprotein 1ab (Severe acute respiratory syndrome coronavirus 2, UniProt P0DTD1); test: Inhibition of his tagged SARS-CoV-2 nsp12 in HEK-293T cells cotransfected with pCoV-GLuc incubated for 24 hrs in the presence of coelenterazine-h by Gaussia luciferase reporter assay; format: cell-based
[13] = Selectivity index, ratio of CC50 for cytotoxicity against HEK293T cells assessed as inhibition of cell growth to EC50 for antiviral activity against SARS-CoV-2 infected in HEK293T cells assessed as inhibition of SARS-CoV-2 RdRp; format: toxicity, cell-based; conditions: human, read-out: Ratio CC50/EC50
[14] = target: T1, Replicase polyprotein 1ab; test: Inhibition of SARS-CoV-2 nsp14 in HEK-293T cells cotransfected with pCoV-GLuc incubated for 24 hrs in the presence of coelenterazine-h by Gaussia luciferase reporter assay; format: cell-based
[15] = system: Human coronavirus OC43; test: Antiviral activity against HCoV-OC43 infected in golden hamster BHK-21 cells assessed as inhibition of viral infection at 10 uM measured after 24 hrs by luciferase assay; format: functional, organism-based
[16] = system: Human coronavirus OC43; test: Antiviral activity against HCoV-OC43(Rluc) infected in golden hamster BHK-21 cells assessed as inhibition of viral replication at 10 uM pre-infected with virus for 1 hrs followed by compound addition and measured after 24 hrs by luciferase assay; format: functional, organism-based
[17] = target: T1, Replicase polyprotein 1ab; test: Binding affinity to SARS-CoV-2 nsp12 expressed in Escherichia coli BL21 (DE3) cells using biotinylated EZ-link NHS-LC-LC assessed as dissociation constant incubated for 180 sec by BLI assay
[18] = target: Replicase polyprotein 1ab (Severe acute respiratory syndrome coronavirus 2) (UniProt P0DTD1); test: Inhibition of SARS-CoV-2 3CLpro in HEK293T cells at 2 to 20 uM measured after 48 hrs by Western blot analysis; format: cell-based; conditions: dose 2-20 µM
[19] = system: Human coronavirus OC43; test: Antiviral activity against HCoV-OC43(Rluc) infected in BHK-21 cells assessed as inhibition of viral infection at 10 uM pre-infected with virus for 2 hrs followed by compound addition measured after 24 hrs by luciferase assay; format: functional, organism-based
[20] = system: SARS-CoV-2; test: Antiviral activity against SARS-CoV-2 C-Tan-n-CoV Wuhan infected in African green monkey Vero E6 cells assessed as inhibition of viral replication incubated for 24 hrs by qRT-PCR analysis; format: functional, organism-based; conditions: Severe acute respiratory syndrome coronavirus 2, C-Tan-n-CoV Wuhan, Vero C1008, 24 h
[21] = target: T1, Replicase polyprotein 1ab; test: Binding affinity to SARS-CoV-2 nsp12 expressed in Escherichia coli BL21 (DE3) cells using biotinylated EZ-link NHS-LC-LC assessed as dissociation constant at 6.25 to 100 uM incubated for 180 sec by BLI assay

Compound	inhibition [1]	CC50 at 48 h [2]	EC50 [3]	other results
Nc1ccc(/N=N/c2ccccc2)c(NC(=O)[C@@H](N)Cc2ccccc2)n1	56.7%	> 100 µM	8.77 µM	–
Nc1ccc(/N=N/c2ccc(Cl)cc2)c(N)n1	64.5%	> 100 µM	7.64 µM	–
Nc1ccc(/N=N/c2ccccc2)c(NC(=O)[C@@H]2CCCN2)n1	72.9%	> 100 µM	3.78 µM	–
Oc1ccc(/N=N/c2ccccc2)cc1	45.4%	–	–	–
CC(C)(C)OC(=O)N[C@@H](Cc1ccccc1)C(=O)Nc1nc(N)ccc1/N=N/c1ccccc1	79.8%	> 100 µM	2.64 µM	–
Nc1nc(N)c(/N=N/c2ccccc2)cc1/N=N/c1ccccc1	46%	–	–	–
Nc1ccc(/N=N/c2ccc(Cc3ccccc3)cc2)c(N)n1	59.3%	> 100 µM	6.47 µM	–
Nc1cc(Br)c(/N=N/c2ccccc2)c(N)n1	41.9%	–	–	–
Nc1ccc(/N=N/c2ccc(OCc3ccccc3)cc2)c(N)n1	65.3%	> 100 µM	7.16 µM	–
CCC(CC)COC(=O)[C@H](C)N[P@](=O)(OC[C@H]1O[C@@](C#N)(c2ccc3c(N)ncnn23)[C@H](O)[C@@H]1O)Oc1ccccc1	–	> 100 µM	–	inhibition [4]: 80%; inhibition [5]: Dose-dependent-effect; CC50 at 48 h [6]: > 100 µM; CC50 at 48 h [7]: > 100 µM; inhibition [8]: 80%; EC50 [9]: 1.89 µM; inhibition [10]: Dose-dependent-effect; EC50 [11]: 2.67 µM
Cc1ccc(/N=N/c2ccc(N)nc2N)cc1	59.1%	> 100 µM	8.59 µM	–
CSCC[C@H](NC(=O)OC(C)(C)C)C(=O)Nc1nc(N)ccc1/N=N/c1ccccc1	83%	> 100 µM	1.33 µM	EC50 [12]: 1.33 µM; inhibition [5]: Dose-dependent-effect; selectivity ratio [13]: 75.2; EC50 [14]: 1.38 µM; inhibition [10]: Dose-dependent-effect
Nc1ccc(/N=N/c2ccc(F)cc2)c(N)n1	64.9%	> 100 µM	8.73 µM	–
Nc1ccc(/N=N/c2ccc(C(F)(F)F)cc2)c(N)n1	74.9%	> 100 µM	6.32 µM	–
C[C@H](NC(=O)OC(C)(C)C)C(=O)Nc1nc(N)ccc1/N=N/c1ccccc1	86%	> 100 µM	1.42 µM	EC50 [12]: 1.42 µM; inhibition [5]: Dose-dependent-effect; selectivity ratio [13]: 70.4; EC50 [14]: 1.73 µM; inhibition [10]: Dose-dependent-effect
Nc1ccc(/N=N/c2ccccc2)c(NC(=O)[C@@H](N)Cc2c[nH]c3ccccc23)n1	82.7%	81.9 µM	1.64 µM	EC50 [12]: 1.64 µM; inhibition [5]: Dose-dependent-effect; selectivity ratio [13]: 50; EC50 [14]: 1.53 µM; inhibition [10]: Dose-dependent-effect
COc1ccc(/N=N/c2ccc(N)nc2N)cc1	48%	–	–	–
Cl.Nc1ccc(/N=N/c2ccccc2)c(N)n1 [PHENAZOPYRIDINE HYDROCHLORIDE]	50%	> 100 µM	7.37 µM	EC50 [12]: 7.37 µM; inhibition [15]: Active; inhibition [16]: Active; Minor Effects Was Observed; Kd [17]: Dose-dependent-effect; inhibition [18]: inactive; inhibition [5]: Dose-dependent-effect; CC50 at 48 h [6]: > 100 µM; inhibition [19]: Active; CC50 at 48 h [7]: > 100 µM; inhibition [8]: 90%; EC50 [20]: 5.37 µM; selectivity ratio [13]: > 13.6; EC50 [9]: 4.69 µM; EC50 [14]: 8.01 µM; Kd [21]: 5 µM; inhibition [10]: Dose-dependent-effect; EC50 [11]: 5.52 µM
CN(C)c1ccc(/N=N/c2ccc(N)nc2N)cc1	50.1%	> 100 µM	9.52 µM	–
Nc1ccc(/N=N/c2ccc([N+](=O)[O-])cc2)c(N)n1	45.8%	–	–	–
C[C@H](N)C(=O)Nc1nc(N)ccc1/N=N/c1ccccc1	48.2%	–	–	–
Nc1ccc(/N=N/c2cccc3c2CCCC3)c(N)n1	71.8%	78.9 µM	7.35 µM	–
Nc1ccc(/N=N/c2ccc(Br)cc2)c(N)n1	71.8%	> 100 µM	8.61 µM	–
Cc1cc(N)nc(N)c1/N=N/c1ccccc1	49.9%	–	–	–
NCC(=O)Nc1nc(N)ccc1/N=N/c1ccccc1	52.4%	> 100 µM	9.28 µM	–
Nc1nc(N)c(/N=N/c2ccccc2)cc1Br	51.1%	> 100 µM	13.3 µM	–
CC(C)(C)OC(=O)NCC(=O)Nc1nc(N)ccc1/N=N/c1ccccc1	77.4%	> 100 µM	1.7 µM	–
CSCC[C@H](N)C(=O)Nc1nc(N)ccc1/N=N/c1ccccc1	55.3%	> 100 µM	7.26 µM	–
Nc1cc(-c2ccccc2)c(/N=N/c2ccccc2)c(N)n1	65.6%	> 100 µM	8.26 µM	–
CC(C)(C)OC(=O)N[C@@H](Cc1c[nH]c2ccccc12)C(=O)Nc1nc(N)ccc1/N=N/c1ccccc1	79.8%	79.2 µM	3.79 µM	–
